Laboratory results published in article PMC11125181, “New Inhibitors of Bcr-Abl Based on 2,6,9-Trisubstituted Purine Scaffold Elicit Cytotoxicity in Chronic Myeloid Leukemia-Derived Cell Lines Sensitive and Resistant to TKIs” (Pharmaceutics, 2024).
Where two headings read alike, the source gives them in different places.

What was measured:
HEK-293T = assay: Cytotoxicity assay (resazurin) on non-neoplastic HEK-293T; assay type: cell-based; conditions: Homo sapiens, 72 h, non-neoplastic cells
Description: (§1) Human cell lines KCL22 and BV173 were obtained from the German Collection of Microorganisms and Cell Cultures, K562 and HEK-293T from the European Collection of Authenticated Cell Cultures. KBM5 cell line was kindly gifted by Vladimír Divoký. Development of KCL22 subclones B8 (T315I, 100%), F4 (E255K, 100%), and B10 (Y253H, 50%) was reported previously. All cell lines were cultivated in humidified incubator at 37 °C and in 5% CO2 according to the provider’s instructions in appropriate media supplemented with 10% fetal bovine serum, penicillin (100 IU/mL), streptomycin (100 µg/mL), and glutamine (4 mM).
(§2) Cytotoxicity was determined using resazurin, an indicator dye to measure oxidation-reduction reactions occurring in the mitochondria of live cells. The cells were seeded into 96-well plates and treated with compounds for 72 h (six different doses of each, in triplicate). After treatment, resazurin (Merck, Darmstadt, Germany) solution was added for 4 h, and the fluorescence of formed resorufin corresponding to live cell quantity was measured at 544 nm/590 nm (excitation/emission) using a Fluoroskan Ascent microplate reader (Labsystems, Vantaa, Finland).

KCL22 B10 (Y253H, 50%) = assay: Cytotoxicity assay (resazurin) on KCL22 subclone B10; assay type: cell-based; conditions: Homo sapiens, KCL-22, read-out: GI50 KCL22 B10 Y253H (50%), 72 h
Description: as §1, §2

BV173 = assay: Cytotoxicity assay (resazurin) on BV173; assay type: cell-based; conditions: Homo sapiens, BV-173, 72 h
Description: as §1, §2

KBM5 = assay: Cytotoxicity assay (resazurin) on KBM5; assay type: cell-based; conditions: Homo sapiens, read-out: GI50 KBM5
KCL22 B8 (T315I, 100%) = assay: Cytotoxicity assay (resazurin) on KCL22 subclone B8; assay type: cell-based; conditions: Homo sapiens, KCL-22, read-out: GI50 KCL22 B8 T315I (100%), 72 h
Description: as §1, §2

KCL22 F4 (E255K, 100%) = assay: Cytotoxicity assay (resazurin) on KCL22 subclone F4; assay type: cell-based; conditions: Homo sapiens, KCL-22, read-out: GI50 KCL22 F4 E255K (100%), 72 h
Description: as §1, §2

K562 = assay: Cytotoxicity assay (resazurin) on K562; assay type: cell-based; conditions: Homo sapiens, 72 h
Description: as §1, §2

recombinant Abl1 kinase = molecular target: T1, recombinant Abl1 kinase (Homo sapiens, UniProt P00519); assay: Recombinant Abl1 kinase inhibition assay ([γ-33P]ATP, peptide substrate); assay type: biochemical
T1 construct: made in house
Description: The reactions were stopped by adding 5 µL of 3% aq. H3PO4. […] H3PO4, and air-dried.

[1] = tested on: KCL22 cells containing Bcr-Abl^WT; assay: Cytotoxicity assay (resazurin) on KCL22 WT; assay type: cell-based, human
[2] = tested on: KCL22 B8 cell line containing Bcr-Abl^T315I; assay: Cell cycle flow cytometry, KCL22 B8; assay type: cell-based, human; conditions: 24 h treatment
Description: The cell lines were seeded into 96-well plates and then treated with compounds for 24 h. After treatment, the cells were directly stained by adding 5 × staining solution (17 mM trisodium citrate dihydrate, 0.5% IGEPAL® CA-630, 7.5 mM spermine tetrahydrochloride, 2.5 mM Tris; pH 7.6 containing 50 μg/mL propidium iodide). […] Cell cycle distribution was analyzed using ModFit LT 5.0.9 (Verity Software House, Augusta, ME, USA).

[3] = as listed in Table S1, Bcr-Abl WT, read-out: IC50 (Table S1)
[4] = from the IC50 of Table S1, read-out: pIC50 (Table S1) (converted)
[5] = recombinant Abl1, 1 µM ATP, at least three independent experiments, read-out: IC50 Abl
[6] = Homo sapiens, KCL-22, 72 h, read-out: GI50 KCL22 WT

T1 sequence (P00519 whole entry): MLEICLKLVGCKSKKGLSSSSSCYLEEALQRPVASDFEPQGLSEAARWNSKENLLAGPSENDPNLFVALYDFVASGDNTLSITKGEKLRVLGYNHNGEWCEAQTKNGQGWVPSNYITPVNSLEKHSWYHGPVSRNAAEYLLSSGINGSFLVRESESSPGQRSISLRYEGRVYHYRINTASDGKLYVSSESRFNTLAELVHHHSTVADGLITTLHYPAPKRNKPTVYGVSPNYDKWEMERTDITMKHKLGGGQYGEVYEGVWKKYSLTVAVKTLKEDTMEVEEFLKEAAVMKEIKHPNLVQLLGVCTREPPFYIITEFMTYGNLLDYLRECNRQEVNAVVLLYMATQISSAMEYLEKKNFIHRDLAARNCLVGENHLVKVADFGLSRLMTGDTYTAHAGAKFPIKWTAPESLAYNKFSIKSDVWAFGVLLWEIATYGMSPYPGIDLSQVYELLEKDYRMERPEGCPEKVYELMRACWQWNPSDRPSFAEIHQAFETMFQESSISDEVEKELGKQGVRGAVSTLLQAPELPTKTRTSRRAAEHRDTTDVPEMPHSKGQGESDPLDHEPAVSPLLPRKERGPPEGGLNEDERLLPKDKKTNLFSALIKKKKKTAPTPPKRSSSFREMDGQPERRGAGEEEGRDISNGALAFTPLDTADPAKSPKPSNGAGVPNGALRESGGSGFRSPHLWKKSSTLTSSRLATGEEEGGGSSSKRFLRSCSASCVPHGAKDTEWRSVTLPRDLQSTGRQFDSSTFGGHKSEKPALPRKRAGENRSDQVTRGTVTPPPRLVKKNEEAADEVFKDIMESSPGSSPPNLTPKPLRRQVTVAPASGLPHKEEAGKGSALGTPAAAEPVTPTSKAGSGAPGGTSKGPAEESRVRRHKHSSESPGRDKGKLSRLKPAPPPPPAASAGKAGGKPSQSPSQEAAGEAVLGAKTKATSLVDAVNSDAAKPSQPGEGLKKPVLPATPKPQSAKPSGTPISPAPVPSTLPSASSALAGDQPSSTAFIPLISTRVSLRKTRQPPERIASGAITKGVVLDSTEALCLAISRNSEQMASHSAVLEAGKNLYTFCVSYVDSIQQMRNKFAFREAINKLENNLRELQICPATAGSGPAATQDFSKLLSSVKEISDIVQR

Structure (SMILES) | GI50 (HEK-293T) [µM] | GI50 (KCL22 B10 (Y253H, 50%)) [µM] | GI50 (BV173) [µM] | GI50 (KBM5; KBM5, 72 h) [µM] | GI50 (KCL22 B8 (T315I, 100%)) [µM] | GI50 (KCL22 F4 (E255K, 100%)) [µM] | GI50 (K562) [µM] | IC50 (recombinant Abl1 kinase; [3]) [µM] | IC50 (recombinant Abl1 kinase; [4]) [µM] | IC50 (recombinant Abl1 kinase; [5]) [µM] | GI50 (KBM5; KBM5, 72 h, resazurin assay) [µM] | GI50 [1, 6] [µM] | melting point [°C] | Effect on cell cycle distribution, KCL22 B8 (T315I) [2] | GI50 ([1]; 72 h, read-out: GI50 KCL22 WT) [µM] | GI50 ([1]; read-out: GI50 KCL22 WT, 72 h) [µM]
CN1CCN(c2ccc(Nc3nc(Nc4ccc(F)c(F)c4)c4ncn(CC5CC5)c4n3)cc2)CC1 [III, reference compound] | 5.3 ± 0.3 | 3.4 ± 0.4 | 1.4 ± 0.1 | 1.1 ± 0.8 | > 20 | > 20 | 1.2 ± 0.4 |  |  |  |  |  |  |  |  | 
CCCCCCn1cnc2c(Nc3cccc(F)c3)nc(Nc3ccc(N4CCN(CCO)CC4)cc3)nc21 [Compound 11h, 2-(4-(4-((6-((3-Fluorophenyl)amino)-9-hexyl-9H-purin-2-yl)amino)phenyl)piperazin-1-yl)ethan-1-ol] | 6 ± 1 | 5.9 ± 0.7 | 5.2 ± 0.5 |  | 9.5 ± 1.5 | 8.1 ± 1.2 | 4.8 ± 0.4 | 0.67 | 0.67 | 0.674 ± 0.069 | 5.8 ± 0.2 | 9.6 ± 1 |  |  |  | 
OCCN1CCN(c2ccc(Nc3nc(Nc4ccccc4)c4ncn(CC5CC5)c4n3)cc2)CC1 [Compound 11a, 2-(4-(4-((9-(Cyclopropylmethyl)-6-(phenylamino)-9H-purin-2-yl)amino)phenyl)piperazin-1-yl)ethan-1-ol] | 9.5 ± 0.7 | 6.3 ± 0.4 | 3 ± 0.6 |  | > 20 | 12.7 ± 0.1 | 1.2 ± 0.3 |  | 0.037 | 0.037 ± 0.012 | 3 ± 0.1 | 5.7 ± 0.8 |  |  |  | 
CN1CCN(c2ccc(Nc3nc(Nc4ccccc4)c4ncn(CC5CC5)c4n3)cc2)CC1 [Compound I, reference compound] | 7.5 ± 1.4 | 5.2 ± 0.2 | 2.2 ± 0.2 | 2.7 ± 0.1 | 17.3 ± 2 | 5.7 ± 0.3 | 1.5 ± 0.1 |  |  |  |  |  |  |  |  | 
CN1CCN(c2ccc(Nc3nc(NCc4ccccc4)c4ncn(CC5CC5)c4n3)cc2)CC1 [Compound 13c, N^6-benzyl-9-(cyclopropylmethyl)-N^2-(4-(4-methylpiperazin-1-yl)phenyl)-9H-purine-2,6-diamine] | 16.7 ± 1.1 | > 20 | 11.9 ± 1.4 |  | > 20 | > 20 | 5.7 ± 0.6 | 0.84 | 0.839 | 0.845 ± 0.066 | > 20 | > 20 | 152 to 154 |  |  | 
CN1CCN(c2ccc(Nc3nc(NC4CCCCC4)c4ncn(CC5CC5)c4n3)cc2)CC1 [Compound 13b, N^6-cyclohexyl-9-(cyclopropylmethyl)-N^2-(4-(4-methylpiperazin-1-yl)phenyl)-9H-purine-2,6-diamine] | > 20 | > 20 | > 20 |  | > 20 | > 20 | 4.8 ± 0.3 | 11.1 | 11 | 11.1 ± 3.31 | > 20 | > 20 |  |  |  | 
CC(C)CCn1cnc2c(Nc3ccc(F)c(F)c3)nc(Nc3ccc(N4CCN(CCO)CC4)cc3)nc21 [Compound 11f, 2-(4-(4-((6-((3,4-Difluorophenyl)amino)-9-isopentyl-9H-purin-2-yl)amino)phenyl)piperazin-1-yl)ethan-1-ol] | 5.2 ± 0.7 | 7 ± 0.5 | 4.5 ± 0.1 |  | 7.2 ± 1 | 5.7 ± 0.1 | 5.9 ± 0.6 |  | 1.76 | 1.76 ± 0.74 | 5.2 ± 0.1 | 6.5 ± 0.2 |  |  |  | 
CCCCCCn1cnc2c(Nc3ccc(F)c(F)c3)nc(Nc3ccc(N4CCN(CCO)CC4)cc3)nc21 [Compound 11i, 2-(4-(4-((6-((3,4-Difluorophenyl)amino)-9-hexyl-9H-purin-2-yl)amino)phenyl)piperazin-1-yl)ethan-1-ol] | > 20 | > 20 | 4.8 ± 0.3 |  | > 20 | > 20 | 3.1 ± 0.6 |  | 1.68 | 1.68 ± 0.01 | 5.6 ± 0.2 | > 20 | 135.1 to 137.1 |  |  | 
CN1CCN(Cc2ccc(Nc3nc(Nc4cccc(F)c4)c4ncn(CC5CC5)c4n3)cc2)CC1 [Compound 7a, 9-(Cyclopropylmethyl)-N^6-(3-fluorophenyl)-N^2-(4-((4-methylpiperazin-1-yl)methyl)phenyl)-9H-purine-2,6-diamine] | 6.3 ± 0.7 | 7.4 ± 0.6 | 3.3 ± 1.6 |  | 13.8 ± 2 | 11.1 ± 0.5 | 1.5 ± 0.1 |  | 0.18 | 0.18 ± 0.068 | 4.4 ± 0.8 | 8.1 ± 0.5 |  |  |  | 
CN1CCN(Cc2ccc(Nc3nc(Nc4ccc(F)c(F)c4)c4ncn(CC5CC5)c4n3)cc2)CC1 [Compound 7b, 9-(Cyclopropylmethyl)-N^6-(3,4-difluorophenyl)-N^2-(4-((4-methylpiperazin-1-yl)methyl)phenyl)-9H-purine-2,6-diamine] | 6.3 ± 1.2 | 6.6 ± 0.2 | 1.9 ± 0.1 |  | 11.4 ± 3.2 | 10.1 ± 1.2 | 1.4 ± 0.2 |  | 0.22 | 0.225 ± 0.042 | 4.2 ± 0.2 | 8.5 ± 1.4 |  |  |  | 
Cc1cn(-c2cc(NC(=O)c3ccc(C)c(Nc4nccc(-c5cccnc5)n4)c3)cc(C(F)(F)F)c2)cn1 [Nilotinib, reference compound] | > 10 | 1.4 ± 0.3 | 0.003 |  | > 20 | 0.789 ± 0.081 | 0.025 ± 0.01 |  |  |  | 0.019 ± 0.009 |  |  | no effect | 0.047 ± 0.008 | 0.019
Cc1ccc(NC(=O)c2ccc(CN3CCN(C)CC3)cc2)cc1Nc1nccc(-c2cccnc2)n1 [Imatinib, reference compound] | > 10 | > 20 | 0.199 ± 0.061 |  | > 20 | 9.6 ± 0.5 | 0.231 ± 0.001 |  |  |  |  |  |  |  |  | 
CN1CCN(c2ccc(Nc3nc(Nc4cccc(F)c4)c4ncn(CC5CC5)c4n3)cc2)CC1 [II, reference compound] | 5.6 ± 0.6 | 8.8 ± 0.4 | 5.3 ± 0.2 | 5.1 ± 0.5 | > 20 | > 20 | 0.8 ± 0.1 |  |  |  |  |  |  |  |  | 
OCCN1CCN(c2ccc(Nc3nc(Nc4ccc(F)c(F)c4)c4ncn(CC5CC5)c4n3)cc2)CC1 [Compound 11c, 2-(4-(4-((9-(Cyclopropylmethyl)-6-((3,4-difluorophenyl)amino)-9H-purin-2-yl)amino)phenyl)piperazin-1-yl)ethan-1-ol] | 5 ± 0.9 | 4.1 ± 0.2 | 1.7 ± 0.1 |  | 6.4 ± 0.4 | 4.1 ± 0.2 | 0.9 ± 0.2 |  | 0.019 | 0.02 ± 0.001 | 2.1 ± 0.3 | 2.9 |  |  |  | 
CN1CCN(c2ccc(Nc3nc(N)c4ncn(CC5CC5)c4n3)cc2)CC1 [Compound 13a, 9-(Cyclopropylmethyl)-N^2-(4-(4-methylpiperazin-1-yl)phenyl)-9H-purine-2,6-diamine] | > 100 | > 100 | > 20 |  | > 100 | > 100 | > 100 | 3.95 | 3.95 | 3.96 ± 0.51 | > 100 | > 100 | 133 to 134 |  |  | 
CCCCCCn1cnc2c(Nc3ccccc3)nc(Nc3ccc(N4CCN(CCO)CC4)cc3)nc21 [Compound 11g, 2-(4-(4-((9-Hexyl-6-(phenylamino)-9H-purin-2-yl)amino)phenyl)piperazin-1-yl)ethan-1-ol] | 8.6 ± 3.2 | 7.7 ± 0.2 | 5.2 ± 0.2 |  | 10.4 ± 1.8 | 8.5 ± 0.9 | 4.5 ± 1.4 | 0.83 | 0.83 | 0.834 ± 0.447 | 5.4 ± 0.2 | 15.1 ± 2.2 |  |  |  | 
CC(C)CCn1cnc2c(Nc3ccccc3)nc(Nc3ccc(N4CCN(CCO)CC4)cc3)nc21 [Compound 11d, 2-(4-(4-((9-Isopentyl-6-(phenylamino)-9H-purin-2-yl)amino)phenyl)piperazin-1-yl)ethan-1-ol] | 5.7 ± 1.2 | 7.8 ± 0.5 | 3.6 ± 0.7 |  | 7.8 ± 1.3 | 6.6 ± 0.6 | 6.3 ± 0.7 |  | 1.24 | 1.24 ± 0.22 | 5.6 ± 0.4 | 8.4 ± 0.3 | 88.6 to 89.2 |  |  | 
